Measurements taken from patent publication US9447044B2, “Thioaryl derivatives as GPR120 agonists” (LG LIFE SCIENCES LTD., priority 2012, dated 2016).

Biological target: T1, hGPR120 (Homo sapiens, UniProt Q5NUL3)
T1 construct: expressed in transfected cells; host or cells: CHO-K1
T1 sequence (Q5NUL3 1-361): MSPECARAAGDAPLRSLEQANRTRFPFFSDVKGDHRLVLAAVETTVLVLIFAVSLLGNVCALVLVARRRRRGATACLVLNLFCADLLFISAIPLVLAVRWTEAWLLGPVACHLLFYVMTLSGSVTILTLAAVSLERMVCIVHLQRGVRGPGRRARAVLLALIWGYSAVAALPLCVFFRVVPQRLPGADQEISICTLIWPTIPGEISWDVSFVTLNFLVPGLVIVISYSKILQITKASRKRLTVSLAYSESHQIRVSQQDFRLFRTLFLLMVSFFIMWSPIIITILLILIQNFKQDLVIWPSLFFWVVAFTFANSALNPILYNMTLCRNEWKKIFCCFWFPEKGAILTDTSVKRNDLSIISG
Test: Measurement of activity of GPR120 agonist (cell-based assay), calcium fluorescence
Conditions: CHO-K1 cells expressing Ga16 and hGPR120; Calcium 5 dye fluorescence; activity class
Procedure: CHO-K1 cells expressing Ga16 and hGPR120 were dispensed into each well of a 96-well plate (3×10^4 cells/100 μl/well) and then incubated in 5% CO2, 37° C. incubator for 18 hours. Each well was treated with 100 μl of Calcium 5 dye (Molecular Devices) solution including 2% DMSO and then incubated in 5% CO2, 37° C. incubator for 1 hour. Serially diluted GPR120 agonists were prepared to a final concentration of 0.5% DMSO in a 96-well plate. Each well was treated with 50 μl of the agonist compounds using Plexstation II, and then fluorescence was measured at Ex 485 nm, Em 525 nm.
Fluorescence increased by the serially diluted GPR120 agonists is calculated as a relative percent (%) value based on the fluorescence represented by the treatment of 0.1% DMSO only. […] The calculation of measurement was carried out by using statistical software (Prizm).
Activity is denoted based on the following criteria: A=>20 μM, B=[…], C=2˜0.2 μM, D=<0.2 μM

Row | Compound | EC50 [nM]
1 | CCC(C)Sc1cccc(COc2ccc(CC(C)C(=O)O)cc2F)n1 (stereo not drawn) [Example 53, 3-[4-(6-sec-butylsulfanyl-pyridin-2-ylmethoxy)-3-fluoro-phenyl]-2-methyl-propionic acid] | 200 to 2000
2 | CC(C)Sc1ncccc1COc1ccc2c(c1)OCC2CC(=O)O (stereo not drawn) [Example 59, [6-(2-isopropylsulfanyl-pyridin-3-ylmethoxy)-2,3-dihydro-benzofuran-3-yl]-acetic acid] | 200 to 2000
3 | CC(C)Sc1cccc(COc2ccc3c(c2)OCC3CC(=O)O)n1 (stereo not drawn) [Example 67, [6-(6-isopropylsulfanyl-pyridin-2-ylmethoxy)-2,3-dihydro-benzofuran-3-yl]-acetic acid] | 200 to 2000
4 | O=C(O)CC1COc2cc(OCc3cccc(SC4CCCC4)n3)ccc21 (stereo not drawn) [Example 68, [6-(6-cyclopentylsulfanyl-pyridin-2-ylmethoxy)-2,3-dihydro-benzofuran-3-yl]-acetic acid] | 200 to 2000
5 | CC(C)Sc1ncccc1COc1ccc(CC(C)(C)C(=O)O)cc1 [Example 69, 3-[4-(2-isopropylsulfanyl-pyridin-3-ylmethoxy)-phenyl]-2,2-dimethyl-propionic acid] | 200 to 2000
6 | Cc1ncc(COc2c(F)cc(CCC(=O)O)cc2F)c(SC(C)C)n1 [Example 71, 3-[3,5-difluoro-4-(4-isopropylsulfanyl-2-methyl-pyrimidin-5-ylmethoxy)-phenyl]-prop ionic acid] | 200 to 2000
7 | COc1cc(CCC(=O)O)ccc1OCc1cccc(SC2CCCC2)n1 [Example 73, 3-[4-(6-cyclopentylsulfanyl-pyridin-2-ylmethoxy)-3-methoxy-phenyl]-propionic acid] | 200 to 2000
8 | O=C(O)CC1COc2cc(OCc3cccnc3SC3CCCC3)ccc21 (stereo not drawn) [Example 74, [6-(2-cyclopentylsulfanyl-pyridin-3-ylmethoxy)-2,3-dihydro-benzofuran-3-yl]-acetic acid] | < 200
9 | O=C(O)C1CC1c1cc(F)c(OCc2cccc(SC3CCC3)n2)c(F)c1 (stereo not drawn) [Example 75, 2-[4-(6-cyclobutylsulfanyl-pyridin-2-ylmethoxy)-3,5-difluoro-phenyl]-cyclopropane carboxylic acid] | < 200
10 | COc1ccc(COc2c(F)cc(CCC(=O)O)cc2F)c(SC2CCCC2)n1 [Example 76, 3-[4-(2-cyclopentylsulfanyl-6-methoxy-pyridin-3-ylmethoxy)-3,5-difluoro-phenyl]-propionic acid] | 200 to 2000
11 | CC(C)Sc1ncccc1COc1ccc(CCC(=O)O)cc1Cl [Example 77, 3-[3-chloro-4-(2-isopropylsulfanyl-pyridin-3-ylmethoxy)-phenyl]-propionic acid] | < 200
12 | O=C(O)CCc1ccc(OCc2cccnc2SC2CCCC2)c(Cl)c1 [Example 78, 3-[3-chloro-4-(2-cyclopentylsulfanyl-pyridin-3-ylmethoxy)-phenyl]-propionic acid] | < 200

Next, values leading:

Row | EC50 [nM] | Compound
13 | < 200 | CC(Cc1cc(F)c(OCc2cccnc2SCC2CC2)c(F)c1)C(=O)O (stereo not drawn) [Example 50, 3-[4-(2-cyclopropylmethylsulfanyl-pyridin-3-ylmethoxy)-3,5-difluoro-phenyl]-2-methyl-propionic acid]
14 | < 200 | CCCSc1ncccc1COc1c(F)cc(CC(C)C(=O)O)cc1F (stereo not drawn) [Example 51, 3-[3,5-difluoro-4-(2-propylsulfanyl-pyridin-3-ylmethoxy)-phenyl]-2-methyl-propionic acid]
15 | < 200 | CC(C)Sc1cccc(COc2ccc(CC(C)C(=O)O)cc2F)n1 (stereo not drawn) [Example 52, 3-[3-fluoro-4-(6-isopropylsulfanyl-pyridin-2-ylmethoxy)-phenyl]-2-methyl-propionic acid]
16 | < 200 | CC(Cc1ccc(OCc2cccc(SC3CCCC3)n2)c(F)c1)C(=O)O (stereo not drawn) [Example 54, 3-[4-(6-cyclopentylsulfanyl-pyridin-2-ylmethoxy)-3-fluoro-phenyl]-2-methyl-propionic acid]
17 | < 200 | CC(Cc1ccc(OCc2cccc(SC3CCC3)n2)c(F)c1)C(=O)O (stereo not drawn) [Example 55, 3-[4-(6-cyclobutylsulfanyl-pyridin-2-ylmethoxy)-3-fluoro-phenyl]-2-methyl-propionic acid]
18 | < 200 | CC(Cc1cc(F)c(OCc2cccnc2SC2CCC2)c(F)c1)C(=O)O (stereo not drawn) [Example 56, 3-[4-(2-cyclobutylsulfanyl-pyridin-3-ylmethoxy)-3,5-difluoro-phenyl]-2-methyl-propionic acid]
19 | < 200 | COc1cc(CCC(=O)O)ccc1OCc1cccnc1SC1CCCC1 [Example 58, 3-[4-(2-cyclopentylsulfanyl-pyridin-3-ylmethoxy)-3-methoxy-phenyl]-propionic acid]
20 | < 200 | CC(C)Sc1ncccc1COc1ccc(CC(C)C(=O)O)cc1F (stereo not drawn) [Example 60, 3-[3-fluoro-4-(2-isopropylsulfanyl-pyridin-3-ylmethoxy)-phenyl]-2-methyl-propionic acid]
21 | < 200 | CCCCSc1ncccc1COc1ccc(CC(C)C(=O)O)cc1F (stereo not drawn) [Example 61, 3-[4-(2-butylsulfanyl-pyridin-3-ylmethoxy)-3-fluoro-phenyl]-2-methyl-propionic acid]
22 | < 200 | O=C(O)C1CC1c1cc(F)c(OCc2cccnc2SC2CCCC2)c(F)c1 (stereo not drawn) [Example 62, 2-[4-(2-cyclopentylsulfanyl-pyridin-3-ylmethoxy)-3,5-difluoro-phenyl]-cyclopropane carboxylic acid]
23 | < 200 | O=C(O)C1CC1c1cc(F)c(OCc2cccnc2SCC2CC2)c(F)c1 (stereo not drawn) [Example 63, 2-[4-(2-cyclopropylmethylsulfanyl-pyridin-3-ylmethoxy)-3,5-difluoro-phenyl]-cyclopropane carboxylic acid]
24 | < 200 | CC(C)Sc1ncccc1COc1c(F)cc(C2CC2C(=O)O)cc1F (stereo not drawn) [Example 65, 2-[3,5-difluoro-4-(2-isopropylsulfanyl-pyridin-3-ylmethoxy)-phenyl]-cyclopropane carboxylic acid]
25 | < 200 | CCCCSc1ncccc1COc1c(F)cc(C2CC2C(=O)O)cc1F (stereo not drawn) [Example 66, 2-[4-(2-butylsulfanyl-pyridin-3-ylmethoxy)-3,5-difluoro-phenyl]-cyclopropane carboxylic acid]
26 | < 200 | COc1cc(CCC(=O)O)ccc1OCc1cccc(SC(C)C)n1 [Example 72, 3-[4-(6-isopropylsulfanyl-pyridin-2-ylmethoxy)-3-methoxy-phenyl]-propionic acid]

Same assay, conditions: CHO-K1 cells expressing Ga16 and hGPR120; Calcium 5 dye fluorescence; numeric value

Row | EC50 [nM] | Compound
27 | 454 | COc1cc(CCC(=O)O)ccc1OCc1cccnc1SC(C)C [Example 57, 3-[4-(2-isopropylsulfanyl-pyridin-3-ylmethoxy)-3-methoxy-phenyl]-propionic acid]
28 | 108 | CC(C)Sc1cccc(COc2c(F)cc(C3CC3C(=O)O)cc2F)n1 (stereo not drawn) [Example 64, 2-[3,5-difluoro-4-(6-isopropylsulfanyl-pyridin-2-ylmethoxy)-phenyl]-cyclopropane carboxylic acid]
29 | 1880 | CC(C)Sc1cccc(COc2ccc(CC(C)(C)C(=O)O)cc2)n1 [Example 70, 3-[4-(6-isopropylsulfanyl-pyridin-2-ylmethoxy)-phenyl]-2,2-dimethyl-propionic acid]
30 | 33 | Cc1c(CCC(=O)O)ccc(OCc2cccnc2SC(C)C)c1C [Example 79, 3-[4-(2-isopropylsulfanyl-pyridin-3-ylmethoxy)-2,3-dimethyl-phenyl]-propionic acid]
